# Laboratory results: PubChem BioAssay AID1918994 (Molecular Pharmacology Branch, DTP, NCI, 2023)
# “And” between values parts separate entries of the source, which are not always exact repeats. Identical values can stand only once.
# Test system: 292921-168-R-J2-PDC complex spheroid growth
# Test: Anticancer human tumor 292921-168-R-J2-PDC patient-derived pancreatic carcinoma cell line growth inhibition [AhR]
# Details: for viability, T/C: stronger effect = lower value
# Method in brief: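 Complex tumor spheroids co-cultured with HUVEC and human MSC stroma; AhR antagonists tested in combination with standard-of-care and investigational agents. Top concentration at or near clinical Cmax (else 10 microM), half-log dilutions; growth expressed as percent test/control.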
# [1] = curve of first compound, second compound 0.1 µM
# [2] = curve of first compound, second compound 0.316 µM
# [3] = curve of first compound, second compound 1 µM
# [4] = curve of first compound, second compound 3.16 µM
# [5] = curve of first compound, second compound 10 µM
# [6] = second compound 0.1 µM, first compound 0.0316 µM
# [7] = second compound 0.1 µM, first compound 0.1 µM
# [8] = second compound 0.1 µM, first compound 0.316 µM
# [9] = second compound 0.1 µM, first compound 1 µM
# [10] = second compound 0.1 µM, first compound 3.16 µM
# [11] = second compound 0.1 µM, first compound 10 µM
# [12] = second compound 0.316 µM, first compound 0.0316 µM
# [13] = second compound 0.316 µM, first compound 0.1 µM
# [14] = second compound 0.316 µM, first compound 0.316 µM
# [15] = second compound 0.316 µM, first compound 1 µM
# [16] = second compound 0.316 µM, first compound 3.16 µM
# [17] = second compound 0.316 µM, first compound 10 µM
# [18] = second compound 1 µM, first compound 0.0316 µM
# [19] = second compound 1 µM, first compound 0.1 µM
# [20] = second compound 1 µM, first compound 0.316 µM
# [21] = second compound 1 µM, first compound 1 µM
# [22] = second compound 1 µM, first compound 3.16 µM
# [23] = second compound 1 µM, first compound 10 µM
# [24] = second compound 3.16 µM, first compound 0.0316 µM
# [25] = second compound 3.16 µM, first compound 0.1 µM
# [26] = second compound 3.16 µM, first compound 0.316 µM
# [27] = second compound 3.16 µM, first compound 1 µM
# [28] = second compound 3.16 µM, first compound 3.16 µM
# [29] = second compound 3.16 µM, first compound 10 µM
# [30] = second compound 10 µM, first compound 0.0316 µM
# [31] = second compound 10 µM, first compound 0.1 µM
# [32] = second compound 10 µM, first compound 0.316 µM
# [33] = second compound 10 µM, first compound 1 µM
# [34] = second compound 10 µM, first compound 3.16 µM
# [35] = second compound 10 µM, first compound 10 µM
# 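Note: spheroids exposed to compounds for seven days after three days of growth.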
structure (smiles),measurement,setting,value
CCN(c1cc(-c2ccc(CN3CCOCC3)cc2)cc(C(=O)NCc2c(C)cc(C)[nH]c2=O)c1C)C1CCOCC1 + CC(CO)NC(=O)c1cc(-c2ccc(Cl)cc2)nn(-c2cnn(C)c2)c1=O,IC50,[1],> 3000 nM
same,IC50,[2],> 3000 nM
same,IC50,[3],> 3000 nM
same,IC50,[4],> 3000 nM
same,IC50,[5],> 3000 nM
same,"viability, T/C","second compound 0.1 µM, first compound 0.00949 µM",103%
same,"viability, T/C","second compound 0.1 µM, first compound 0.03 µM",100%
same,"viability, T/C","second compound 0.1 µM, first compound 0.0949 µM",102%
same,"viability, T/C","second compound 0.1 µM, first compound 0.3 µM",93.1%
same,"viability, T/C","second compound 0.1 µM, first compound 0.949 µM",96.9%
same,"viability, T/C","second compound 0.1 µM, first compound 3 µM",93.9%
same,"viability, T/C","second compound 0.316 µM, first compound 0.00949 µM",107%
same,"viability, T/C","second compound 0.316 µM, first compound 0.03 µM",102%
same,"viability, T/C","second compound 0.316 µM, first compound 0.0949 µM",100%
same,"viability, T/C","second compound 0.316 µM, first compound 0.3 µM",103%
same,"viability, T/C","second compound 0.316 µM, first compound 0.949 µM",94.8%
same,"viability, T/C","second compound 0.316 µM, first compound 3 µM",87%
same,"viability, T/C","second compound 1 µM, first compound 0.00949 µM",102%
same,"viability, T/C","second compound 1 µM, first compound 0.03 µM",99%
same,"viability, T/C","second compound 1 µM, first compound 0.0949 µM",110%
same,"viability, T/C","second compound 1 µM, first compound 0.3 µM",97%
same,"viability, T/C","second compound 1 µM, first compound 0.949 µM",95.5%
same,"viability, T/C","second compound 1 µM, first compound 3 µM",86.5%
same,"viability, T/C","second compound 3.16 µM, first compound 0.00949 µM",91.9%
same,"viability, T/C","second compound 3.16 µM, first compound 0.03 µM",89.4%
same,"viability, T/C","second compound 3.16 µM, first compound 0.0949 µM",104%
same,"viability, T/C","second compound 3.16 µM, first compound 0.3 µM",85%
same,"viability, T/C","second compound 3.16 µM, first compound 0.949 µM",81%
same,"viability, T/C","second compound 3.16 µM, first compound 3 µM",83%
same,"viability, T/C","second compound 10 µM, first compound 0.00949 µM",69.1%
same,"viability, T/C","second compound 10 µM, first compound 0.03 µM",71.1%
same,"viability, T/C","second compound 10 µM, first compound 0.0949 µM",76.4%
same,"viability, T/C","second compound 10 µM, first compound 0.3 µM",76.2%
same,"viability, T/C","second compound 10 µM, first compound 0.949 µM",69.9%
same,"viability, T/C","second compound 10 µM, first compound 3 µM",72.9%
COc1cccc2c1C(=O)c1c(O)c3c(c(O)c1C2=O)CC(O)(C(=O)CO)CC3OC1CC(N)C(O)C(C)O1 (configuration not stated),"viability, T/C",compound 0.0316 µM,37.4% and 25.9% and 34.4%
same,"viability, T/C",compound 0.1 µM,26.1% and 17.6% and 21.9%
same,"viability, T/C",compound 0.316 µM,10.9% and 4.94% and 7.46%
same,"viability, T/C",compound 1 µM,0.32% (2×) and 0.28%
same,"viability, T/C",compound 3.16 µM,0.76% (2×) and 0.73%
same,"viability, T/C",compound 10 µM,2.02% and 2.08% and 3.06%
same,IC50,curve of compound,< 31.6 nM
COc1cccc2c1C(=O)c1c(O)c3c(c(O)c1C2=O)CC(O)(C(=O)CO)CC3OC1CC(N)C(O)C(C)O1 (configuration not stated) + CC(CO)NC(=O)c1cc(-c2ccc(Cl)cc2)nn(-c2cnn(C)c2)c1=O,IC50,[1],< 31.6 nM
same,IC50,[2],< 31.6 nM
same,IC50,[3],< 31.6 nM
same,IC50,[4],< 31.6 nM
same,IC50,[5],< 31.6 nM
same,"viability, T/C",[6],32.5%
same,"viability, T/C",[7],22.5%
same,"viability, T/C",[8],7.11%
same,"viability, T/C",[9],1.19%
same,"viability, T/C",[10],3.72%
same,"viability, T/C",[11],4.17%
same,"viability, T/C",[12],31.8%
same,"viability, T/C",[13],21.6%
same,"viability, T/C",[14],8.73%
same,"viability, T/C",[15],1.26%
same,"viability, T/C",[16],2.17%
same,"viability, T/C",[17],4.63%
same,"viability, T/C",[18],31.9%
same,"viability, T/C",[19],26.1%
same,"viability, T/C",[20],8.6%
same,"viability, T/C",[21],1.22%
same,"viability, T/C",[22],2%
same,"viability, T/C",[23],4.64%
same,"viability, T/C",[24],29.6%
same,"viability, T/C",[25],22.4%
same,"viability, T/C",[26],5.98%
same,"viability, T/C",[27],1.4%
same,"viability, T/C",[28],2.71%
same,"viability, T/C",[29],3.71%
same,"viability, T/C",[30],25.2%
same,"viability, T/C",[31],19.9%
same,"viability, T/C",[32],4.23%
same,"viability, T/C",[33],1.07%
same,"viability, T/C",[34],2.43%
same,"viability, T/C",[35],5.08%
Nc1ccn(C2OC(CO)C(O)C2(F)F)c(=O)n1 (configuration not stated) + CC(CO)NC(=O)c1cc(-c2ccc(Cl)cc2)nn(-c2cnn(C)c2)c1=O,IC50,[1],< 31.6 nM
same,IC50,[2],< 31.6 nM
same,IC50,[3],< 31.6 nM
same,IC50,[4],< 31.6 nM
same,IC50,[5],< 31.6 nM
same,"viability, T/C",[6],11.7%
same,"viability, T/C",[7],10.2%
same,"viability, T/C",[8],11.1%
same,"viability, T/C",[9],11.1%
same,"viability, T/C",[10],10.3%
same,"viability, T/C",[11],6.84%
same,"viability, T/C",[12],11.8%
same,"viability, T/C",[13],11.3%
same,"viability, T/C",[14],9.79%
same,"viability, T/C",[15],10.8%
same,"viability, T/C",[16],11.9%
same,"viability, T/C",[17],6.25%
same,"viability, T/C",[18],12%
same,"viability, T/C",[19],11.8%
same,"viability, T/C",[20],11.7%
same,"viability, T/C",[21],11.1%
same,"viability, T/C",[22],11.9%
same,"viability, T/C",[23],7.23%
same,"viability, T/C",[24],12.2%
same,"viability, T/C",[25],10.9%
same,"viability, T/C",[26],12.2%
same,"viability, T/C",[27],11%
same,"viability, T/C",[28],10.5%
same,"viability, T/C",[29],6.81%
same,"viability, T/C",[30],14.2%
same,"viability, T/C",[31],12.8%
same,"viability, T/C",[32],11.9%
same,"viability, T/C",[33],11.6%
same,"viability, T/C",[34],10.3%
same,"viability, T/C",[35],8.31%
